Data reported in paper PMC8248988, “A signal capture and proofreading mechanism for the KDEL-receptor explains selectivity and dynamic range in ER retrieval” (eLife, 2021).
Blank lines part the entries; values can stand above or below the molecule they belong to. Ends that are not written are not given here.

Legend:
human KDELR1 = molecular target: T1, human KDELR1 (Homo sapiens, UniProt P24390); experiment: ER retrieval assay, WT KDELR1-GFP; format: cell-based; settings: COS-7 cells, WT human KDEL receptor-GFP with mScarlet ligand
T1 construct: expressed in transfected cells; host or cells: COS-7
T1 sequence (P24390 whole entry): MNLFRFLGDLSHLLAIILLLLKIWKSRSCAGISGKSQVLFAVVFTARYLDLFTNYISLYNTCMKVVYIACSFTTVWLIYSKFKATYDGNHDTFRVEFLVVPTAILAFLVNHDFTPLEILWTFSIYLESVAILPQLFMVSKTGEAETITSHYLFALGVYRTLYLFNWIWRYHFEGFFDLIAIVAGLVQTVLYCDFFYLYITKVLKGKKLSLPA
From the text: To create KDELR1-GFP and KDELR2-GFP, the reading frames for Homo sapiens KDELR1 (Uniprot: P24390) and KDELR2 (Uniprot: P33947) were cloned into the pEF5/FRT low level mammalian expression vector with a C-terminal 20 amino acid linker made up of 5 copies of Gly-Ser-Ser-Ser followed by GFP. Specific point mutations were introduced using the Quickchange protocol (Stratagene) and are described in the key resources table and figures. To create the mScarlet-KDEL^sec ligand construct, mScarlet with an N-terminal hGH signal peptide and the 16 C-terminal residues of human BiP at its C-terminus, containing the KDEL signal, was cloned into the pcDNA3.1 vector. […] The Golgi marker protein TGN46 was detected by antibody (sheep anti-TGN46 AHP500G; AbD Serotec) and an Alexa 647 conjugated secondary anti-sheep secondary (A-21448, Invitrogen). In Figure 1d and e, endogenous KDELR was detected by antibody (mouse anti-KDELR ADI-VAA-PT048; Enzo Life Sciences) and Alexa 488 conjugated anti-mouse secondary antibody (A-21202, Invitrogen). For retrieval assays in other figures, KDELR-GFP fusion proteins were directly detected by fluorescence. The mScarlet-xDEL fusion proteins were directly detected by fluorescence. […] The fraction of KDEL receptor in the Golgi apparatus was calculated by dividing the Golgi signal by the total cell signal. […]

chicken KDELR2 = molecular target: T2, chicken KDELR2 (Gallus gallus, UniProt Q5ZKX9); experiment: Competition binding assay, [3H]-TAEHDEL against unlabelled peptide; settings: for IC50: competition with [3H]-TAEHDEL, free (COOH) or amidated (CONH) C-terminus, pH 5.4, read-out: Competitor peptide IC50
T2 construct: GFP (of the pDDGFP vector); made in house; host or cells: Saccharomyces cerevisiae Bj5460
T2 sequence (Q5ZKX9 1-212): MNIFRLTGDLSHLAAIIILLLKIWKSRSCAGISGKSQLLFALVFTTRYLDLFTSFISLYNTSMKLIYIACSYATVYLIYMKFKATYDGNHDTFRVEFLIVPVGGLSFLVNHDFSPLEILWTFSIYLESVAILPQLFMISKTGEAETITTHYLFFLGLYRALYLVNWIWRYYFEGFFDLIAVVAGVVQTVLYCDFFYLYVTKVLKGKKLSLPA
From the text: (§1) Figure 1. ER retrieval signal abundance and affinity are not correlated. (a) Sequence logos for ER resident proteins with C-terminal KDEL retrieval signals and variants thereof calculated using frequency or protein abundance ([Itzhak et al., 2017]; [Itzhak et al., 2016]). (b) Combined cellular concentrations of ER resident proteins with canonical KDEL, RDEL, and HDEL retrieval sequences in HeLa cells and mouse brain. (c) Competition binding assays for [^3H]-TAEHDEL and unlabelled TAEKDEL, TAERDEL, and TAEHDEL to the KDEL receptor. IC50 values for the competing peptides were used to calculate the apparent KDwith the Cheng-Prusoff equation ([Cheng and Prusoff, 1973]). (d) Endogenous KDEL receptor redistribution was measured in COS-7 cells in the absence (-ligand) or presence of K/R/H/A/DDEL (mScarlet-xDEL^sec). TGN46 was used as a Golgi marker. Scale bar is 10 µm. (e) The mean difference for K/R/H/A/DDEL comparisons against the shared no ligand control are shown as Cummings estimation plots. The individual data points for the fraction of KDEL receptor fluorescence in the Golgi are plotted on the upper axes with sample sizes and p values. Figure 1—source data 1. Source data for the ligand-induced KDELR receptor retrieval assays in Figure 1e. Figure 1—figure supplement 1. Abundance of ER resident proteins and chaperones in human cells and mouse brain. (a) The mean concentration of ER resident chaperones with the indicated ER retrieval sequence variant is plotted in the bar graph ([Itzhak et al., 2017]; [Itzhak et al., 2016]). […] Endogenous ER chaperone secretion was measured by western blotting after challenge with different retrieval signals, and plotted as a bar graph showing mean ± SEM (n = 3). […] (a) Distribution of human KDELR1 and (b) KDELR2 was measured in COS-7 cells in the absence (-ligand) or presence of K/R/H/A/DDEL retrieval signals (K/R/H/A/DDEL^sec). […] The fraction of KDEL receptor localised to the Golgi was measured before (no ligand) and after challenge with different retrieval signals as indicated. […]

[1] = system: endogenous KDEL receptor in COS-7 cells; experiment: ER retrieval assay, endogenous KDEL receptor redistribution; format: cell-based, African green monkey; settings: COS-7 cells
From the text: as §1, with “1.” for “1. Abundance of ER resident proteins and chaperones in human cells and mouse brain. (a) The mean concentration of ER resident chaperones with the indicated ER retrieval sequence variant is plotted in the bar graph ([Itzhak et al., 2017]; [Itzhak et al., 2016]).”
To create KDELR1-GFP and KDELR2-GFP, the reading frames for Homo sapiens KDELR1 (Uniprot: P24390) and KDELR2 (Uniprot: P33947) were cloned into the pEF5/FRT low level mammalian expression vector with a C-terminal 20 amino acid linker made up of 5 copies of Gly-Ser-Ser-Ser followed by GFP. […]

[2] = molecular target: T3, TAEHDEL retrieval signal peptide; experiment: [3H]-peptide filter binding assay, pH 5.4
T3 chain: TAEHDEL

[3] = molecular target: T4, TAEKDEL retrieval signal peptide (BiP) (Homo sapiens); experiment: [3H]-peptide filter binding assay, pH 5.4
T4 chain: TAEKDEL

- ligand-induced receptor retrieval to the ER (in words) (human KDELR1): functional
Molecule: pcDNA3.1 hGHss-mScarlet-S. cerevisiae BiP667-682 [FEHDEL]

- IC50 (chicken KDELR2): 1750 ± 170 µM
Molecule: TAEHDEL-NH2 [HDEL^CONH, TAEHDEL-CONH]

- binding of C-terminally amidated peptide to wild-type receptor (in words) (chicken KDELR2; amidated C-terminus): completely abolished binding
Molecule: TAEKDEL-CONH [KDEL^CONH, C-amidated peptide variant]

- IC50 (chicken KDELR2): 152 ± 21.7 µM
Molecule: TAEKDEL-OH [KDEL, TAEKDEL]

Molecule: TAEKDEL
- localisation of the mScarlet ligand (in words) [1]: retrieved to the ER

- Kd [2]: 520 nM
- Kd [3]: ~9.3 µM
B1: KDEL receptor 2 (protein)
chain: MNIFRLTGDLSHLAAIIILLLKIWKSRSCAGISGKSQLLFALVFTTRYLDLFTSFISLYNTSMKLIYIACSYATVYLIYMKFKATYDGNHDTFRVEFLIVPVGGLSFLVNHDFSPLAILWTFSIYLESVAILPQLFMISKTGEAETITTHYLFFLGLYRALYLVNWIWRYYFEGFFDLIAVVAGVVQTVLYCDFFYLYVTKVLKGKKLSLPA

- Kd [2]: 520 nM
- Kd [3]: 2.1 µM
B2: KDEL receptor 2 (protein)
chain: MNIFRLTGDLSHLAAIIILLLKIWKSRSCAGISGKSQLLFALVFTTRYLDLFTSFISLYNTSMKLIYIACSYATVYLIYMKFKATYDGNHDTFRVEFLIVPVGGLSFLVNHDFSPLDILWTFSIYLESVAILPQLFMISKTGEAETITTHYLFFLGLYRALYLVNWIWRYYFEGFFDLIAVVAGVVQTVLYCDFFYLYVTKVLKGKKLSLPA

- Kd [2]: 5500 nM
B3: KDEL receptor 2 (protein)
chain: MNIFRLTGDLSHLAAIIILLLKIWKSRSCAGISGKSQLLFALVFTTRYLDLFTSFISLYNTSMKLIYIACSYATVYLIYMKFKATYDGNHDTFRVEFLIVPVGGLSFLVNHDFSPLEILFTFSIYLESVAILPQLFMISKTGEAETITTHYLFFLGLYRALYLVNWIWRYYFEGFFDLIAVVAGVVQTVLYCDFFYLYVTKVLKGKKLSLPA
